Test results taken from PubChem BioAssay (NCI).
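Compound exposure: 48 hours, 5 concentrations, 96-well plates. TGI denotes the concentration required for complete inhibition of growth.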

Legend:
Experiment in all cases: growth of human tumour cells (NCI), 48 h
OVCAR-5 ovarian = test system: OVCAR-5 ovarian
SK-MEL-2 melanoma = test system: SK-MEL-2 melanoma
MDA-MB-231 breast = test system: MDA-MB-231 breast
MOLT-4 leukemia = test system: MOLT-4 leukemia
SNB-75 CNS = test system: SNB-75 CNS
SF-295 CNS = test system: SF-295 CNS
BT-549 breast = test system: BT-549 breast
SNB-19 CNS = test system: SNB-19 CNS
SK-MEL-28 melanoma = test system: SK-MEL-28 melanoma
OVCAR-8 ovarian = test system: OVCAR-8 ovarian
MDA-MB-435 = test system: MDA-MB-435
UACC-257 melanoma = test system: UACC-257 melanoma
NCI-H23 lung = test system: NCI-H23 lung
SF-539 CNS = test system: SF-539 CNS
ACHN renal = test system: ACHN renal
CCRF-CEM leukemia = test system: CCRF-CEM leukemia
KM12 colon = test system: KM12 colon

SMILES | TGI (OVCAR-5 ovarian) [µM] | TGI (SK-MEL-2 melanoma) [µM] | TGI (MDA-MB-231 breast) [µM] | TGI (MOLT-4 leukemia) [µM] | TGI (SNB-75 CNS) [µM] | TGI (SF-295 CNS) [µM] | TGI (BT-549 breast) [µM] | TGI (SNB-19 CNS) [µM] | TGI (SK-MEL-28 melanoma) [µM] | TGI (OVCAR-8 ovarian) [µM] | TGI (MDA-MB-435) [µM] | TGI (UACC-257 melanoma) [µM] | TGI (NCI-H23 lung) [µM] | TGI (SF-539 CNS) [µM] | TGI (ACHN renal) [µM] | TGI (CCRF-CEM leukemia) [µM] | TGI (KM12 colon) [µM]
COC(=O)C1CN=CN1CCc1ccccc1 (stereo not drawn) | > 100 | > 100 | > 100 | > 100 | > 100 | > 100 | > 100 | > 100 | > 100 | > 100 | > 100 | > 100 | > 100 | > 100 | > 100 | > 100 | > 100
Cn1c2ccc3cc2c(=S)c2cc(ccc21)OCCOCCOCCOCCOCCO3 | > 10 | > 10 | > 10 | > 10 | > 10 | > 10 | > 10 | > 10 | > 10 | > 10 | > 10 | > 10 | > 10 | > 10 | > 10 | > 10 | > 10
O=C1NCc2ccccc2S(=O)(=O)n2cccc21 | > 100 | > 100 | > 100 | > 100 | > 100 | > 100 | > 100 | > 100 | > 100 | > 100 | > 100 | > 100 | > 100 | > 100 | > 100 | > 100 | > 100
CC(=O)OCC1OC(OC2CC3C(C)(C)C(OC(C)=O)CC[C@]3(C)C3CCC45CC4(CCC5[C@@H](C)C[C@H](O)C(O)C(C)(C)O)[C@]23C)C(O)C(O)C1O (stereo partly drawn) | > 10 | > 10 | > 10 | > 10 | > 10 | > 10 | > 10 | > 10 | > 10 | > 10 | > 10 | > 10 | > 10 | > 10 | > 10 | > 10 | > 10
Cc1cccc(CP(Cc2cccc(C)c2)CC2(Cp3c4ccccc4c4ccccc43)COC2)c1 | > 100 | > 94.7 | > 37 | 37.8 | > 100 | > 100 | > 100 | > 31.6 | > 100 | > 100 | > 100 | > 100 | > 100 | > 100 | > 100 | > 100 | > 100
O=C(NCCNCCCNC(=O)c1cc(-c2ccccc2)nc2ccccc12)c1cccc(O)c1O | 13.9 | 15.1 | > 100 | > 100 | 60.9 | 28.7 | 11.9 | 11.8 | 18.5 | – | 13.1 | 18.5 | 37.8 | 11.6 | 20 | > 100 | 76.6
CCOC(=O)c1cn2c(n1)sc1c(Cl)c(Cl)ccc12 | > 100 | > 100 | > 100 | > 40 | 73.1 | > 100 | > 100 | 98.9 | > 100 | > 66 | 12.6 | > 100 | > 100 | 21.4 | > 100 | > 100 | > 58.2
O=S(=O)(O)C(=Nc1cccc(Cc2ccccc2)c1)Nc1cccc(Cc2ccccc2)c1 | 33.7 | 44.6 | 38.2 | 83.4 | 30.6 | 34.3 | 33.4 | 48.5 | 38.8 | 36.2 | 40.6 | 48.7 | 31.9 | 34.7 | 38.7 | 98 | 31.5
N#Cc1c(-c2ccc([N+](=O)[O-])cc2)c(C#N)c(=O)n(NS(=O)(=O)c2ccccc2)c1-c1ccccc1 | > 100 | > 100 | > 100 | > 100 | > 100 | > 100 | > 100 | > 100 | > 100 | > 100 | > 100 | > 100 | – | > 100 | > 100 | > 100 | > 100
Brc1cc(CCOC2CCCCO2)c(-c2sccc2CCOC2CCCCO2)s1 (stereo not drawn) | > 100 | 98.4 | > 100 | > 61.3 | > 100 | > 100 | > 100 | > 100 | > 100 | > 100 | > 100 | > 100 | > 100 | > 100 | > 100 | > 82.5 | > 100
